{"source": "patent US20240043483A1", "about": "“TAU BIOSENSOR CELL LINES” (THE BOARD OF REGENTS OF THE UNIVERSITY OF TEXAS SYSTEM, priority 2020, published 2024)", "assay_type_in_all_cases": "cell-based, human", "key": {"HEK biosensor cells": {"test_system": "HEK biosensor cells", "experiment": "Immunoprecipitation from spiked control CSF followed by seeding assay", "details": "1 ml control CSF spiked", "description": "50 μl of Dynabeads Protein A (Thermo Fisher) were washed per the manufacturer protocol and incubated with 10 μg of polyclonal antibody (TauA, Diamond Lab) against the first microtubule-binding repeat of tau for 1 hour at room temperature. washed beads were then added to 1 or 5 ml of human CSF and incubated with rotation overnight at 4° C. Captured proteins were eluted in low pH elution buffer (Pierce) and neutralized the buffer with 1:10 1M Tris pH 8.5 with a final volume of 120 μl.\n(§1) P301S4 or P301S v2L or v2H HEK biosensor cells were plated in 96-well plates at 20,000 cells per well 24 hours before treatment. dilutions of recombinant tau fibrils or brain homogenates in Opti-MEM (Thermo Fisher), 30 μl total volume, or immunoprecipitation eluents 120 μl total volume, were allowed to come to room temperature. […] After 48 hours, cells were trypsinized and fixed in 2% PFA and suspended in flow cytometry buffer (1×HBSS, 1% FBS, 1 mM EDTA). percent FRET positivity was determined of each well by flow cytometry.\nTo determine the lower limit of detection of tau seeds in CSF, control CSF were spiked with small quantities of AD frontal cortex protein (brain AD1) or recombinant tau fibrils. the AD seeds were concentrated and purified using a rabbit polyclonal antibody directed against tau RD (TauA)."}, "[1]": {"test_system": "P301S v2L HEK biosensor cells", "experiment": "Seeding assay, percent FRET positivity by flow cytometry, v2L biosensor cells", "source_text": "A lentiviral FM5-YFP plasmid containing the tau segment 246 to 378 with the P301S mutation, was used as a template, where the human ubiquitin C (Ubc) promoter was replaced with a human cytomegalovirus (CMV) promoter, and the YFP sequence was replaced with a mCerulean 3 or mClover3 coding sequences (see FIGS. 1 and 2). The sequence linking the tau segment and the coding sequence of the fluorophore (Cer or Co) was optimized to the following sequence: GSAGSAAGSGEF (SEQ ID NO:41). Low passage HEK293T cells (P5) were thawed and passaged with antibiotic free media twice before being co-administration of lentivirus encoding tau RD(P301S)-Clo/Cer tau lentivirus. After four passages, single cells were cell sorted by FACS based on low or high signal for both mCerulean3 and mClover3, termed version 2 low (v2L) or version 2 high (v2H). Monoclonal colonies were expanded and characterized as described.\nWild-type full-length (2N4R) tau was synthesized and purified. […]\nas §1\n(§2) The sensitivity of v2L and v2H cells was first compared to the original line. synthetic fibrils based on exposure of recombinant tau protein to heparin were created. The fibrils were incubated with cells in the absence or presence of Lipofectamine 2000 for 48 h and quantified the percentage of FRET-positive cells using flow cytometry to determine the lower limit of detection. […] In the absence of cationic lipid reagent, 1.6 pM tau were detected in v2L cells and 0.78 pM tau in v2H cells (FIGS. 5A and 5B). […]"}, "[2]": {"test_system": "P301S v2H HEK biosensor cells", "experiment": "Seeding assay, percent FRET positivity by flow cytometry, v2H biosensor cells", "details": "for lower limit of detection (LLD), lowest quantity producing FRET positivity statistically distinguishable from background: v2H, T-test p<0.05"}, "P301S v1 biosensor cells": {"test_system": "P301S v1 biosensor cells", "experiment": "Seeding assay, percent FRET positivity by flow cytometry, v1 (original) biosensor cells", "details": "T-test p<0.05", "description": "Wild-type full-length (2N4R) tau was synthesized and purified. 8 μM purified recombinant tau was incubated with 8 uM heparin and 10 mM DTT at 37 C for 48 h in 10 mM HEPES, 100 mM NaCL, PH 7.4. The quality of fibrils was verified by transmission electron microscopy.\nas §1, §2"}}}
{"substance": "recombinant tau fibrils: Wild-type full-length (2N4R) recombinant tau incubated with heparin and DTT at 37 C for 48 h to form fibrils", "values": [{"measurement": "seeding activity detected in spiked CSF after IP, lowest level (monomer equivalent)", "setting": "HEK biosensor cells; IP with TauA antibody, FIG. 7C", "value": 100, "unit": "attomolar"}, {"measurement": "seeding detected from spiked samples down to (tau monomer equivalent)", "setting": "HEK biosensor cells; IP, FIG. 7", "value": 100, "unit": "attomoles"}, {"measurement": "tau detected (lower limit of detection)", "setting": "[1]; v2L cells, absence of cationic lipid reagent, FIGS. 5A and 5B", "value": 1.6, "unit": "pM"}, {"measurement": "lower limit of detection (detected, monomer equivalent)", "setting": "[1]; v2L cells, presence of Lipofectamine 2000, 48 h, FIGS. 4A and 4B", "value": 10, "unit": "fM"}, {"measurement": "sensitivity versus the original line", "setting": "[1]; v2L lines versus original biosensor line", "value": "approximately 10 fold"}, {"measurement": "tau detected (lower limit of detection)", "setting": "[2]; v2H cells, absence of cationic lipid reagent, FIGS. 5A and 5B", "value": 0.78, "unit": "pM"}, {"measurement": "lower limit of detection (detected, monomer equivalent)", "setting": "[2]; v2H cells, presence of Lipofectamine 2000, 48 h, FIGS. 4A and 4B", "value": 32, "unit": "aM"}, {"measurement": "sensitivity versus the original biosensor cell line", "setting": "[2]; v2H line versus original biosensor line", "value": "more than 300 fold"}, {"measurement": "lower limit of detection (LLD), lowest quantity producing FRET positivity statistically distinguishable from background", "setting": "[2]; Lipofectamine seeding", "value": 32, "unit": "amol per sample"}, {"measurement": "lower limit of detection (LLD), lowest quantity producing FRET positivity statistically distinguishable from background", "setting": "[2]; naked seeding", "value": 0.78, "unit": "pmol"}, {"measurement": "lower limit of detection (LLD), lowest quantity producing FRET positivity statistically distinguishable from background", "setting": "P301S v1 biosensor cells; v1, Lipofectamine seeding", "value": 10, "unit": "fmol per sample"}, {"measurement": "lower limit of detection (LLD), lowest quantity producing FRET positivity statistically distinguishable from background", "setting": "P301S v1 biosensor cells; v1, naked seeding", "value": 1.6, "unit": "pmol"}]}
